The record followed here is patent US11046646B2, “Alkylphenyl compounds” (BRISTOL-MYERS SQUIBB COMPANY, priority 2017, dated 2021).

The target of one experiment is S1P1 (Homo sapiens (Human), UniProt P21453). The experiment can be described thus: Receptor [35S] GTPγS binding assay, S1P1. Format: biochemical. Conditions: for GTPγS S1P1 EC50 value as compared to Comparative Compound 20: in words; for EC50: membranes from S1P1/CHO cells, synthetically prepared phosphorylated compounds. How it is done: (§1) Receptor [^35S] GTPγS Binding Assays:
(§2) Compounds were loaded in a 384 Falcon v-bottom plate (0.5 μL/well in a 11 point, 3-fold dilution). Membranes prepared from S1P1/CHO cells or EDG3-Gal5-bla HEK293T cells (EDG3 equivalent S1P3) were added to the compound plate (40 μL/well, final protein 3 μg/well) with MULTIDROP®. [^35S]GTP (1250 Ci/mmol, Perkin Elmer) was diluted in assay buffer: 20 mM HEPES, pH7.5, 10 mM MgCl2, 150 mM NaCl, 1 mM EGTA(ethylene glycol tetraacetic acid), 1 mM DTT (dithiothreitol), 10 μM GDP, 0.1% fatty acid free BSA, and 10 μg/ml Saponin to 0.4 nM. 40 μL of the [^35S] GTP solution was added to the compound plate with a final concentration of 0.2 nM. The reaction was kept at room temperature for 45 min. At the end of incubation, all the mixtures in the compound plate were transferred to Millipore 384-well FB filter plates via the VELOCITY11® Vprep liquid handler. The filter plate was washed with water 4 times by using the manifold Embla plate washer and dried at 60° C. for 45 min. MicroScint 20 scintillation fluid (30 μL) was added to each well for counting on the Packard TOPCOUNT®. EC50 is defined as the agonist concentration that corresponds to 50% of the Ymax (maximal response) obtained for each individual compound tested.
A smaller value for GTPγS S1P1 EC50 value indicated greater activity for the compound in the GTPγS S1P1 binding assay. Thus the compounds of the present invention may be used in treating, preventing, or curing various S1P1 receptor-related conditions. The compounds have potential use in treating, preventing, or curing autoimmune and inflammatory diseases such as multiple sclerosis, rheumatoid arthritis, inflammatory bowel disease, lupus, psoriasis, or minimizing or reducing rejection of transplanted organs.
(In general: GTPγS is a poorly hydrolysed GTP analogue; its binding reports G protein activation.)

The next experiment deals with S1P3 (EDG3) (Homo sapiens (Human), UniProt Q99500). The experiment can be described thus: Receptor [35S] GTPγS binding assay, S1P3. Format: biochemical. Conditions: membranes from EDG3-Gal5-bla HEK293T cells; synthetically prepared phosphorylated compounds. The procedure:
as §1, §2

Sequence of S1P3 (EDG3) (Q99500 whole entry): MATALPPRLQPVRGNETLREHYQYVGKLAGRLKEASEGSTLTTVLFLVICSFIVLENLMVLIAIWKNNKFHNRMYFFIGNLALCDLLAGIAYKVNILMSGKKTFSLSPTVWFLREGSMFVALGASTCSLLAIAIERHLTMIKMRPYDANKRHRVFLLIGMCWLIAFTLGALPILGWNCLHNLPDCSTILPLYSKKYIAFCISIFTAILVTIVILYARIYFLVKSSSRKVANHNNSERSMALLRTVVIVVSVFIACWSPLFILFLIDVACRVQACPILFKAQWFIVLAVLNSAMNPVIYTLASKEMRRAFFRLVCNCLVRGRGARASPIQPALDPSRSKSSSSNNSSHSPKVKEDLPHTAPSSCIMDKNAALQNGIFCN
Sequence of S1P1 (P21453 whole entry): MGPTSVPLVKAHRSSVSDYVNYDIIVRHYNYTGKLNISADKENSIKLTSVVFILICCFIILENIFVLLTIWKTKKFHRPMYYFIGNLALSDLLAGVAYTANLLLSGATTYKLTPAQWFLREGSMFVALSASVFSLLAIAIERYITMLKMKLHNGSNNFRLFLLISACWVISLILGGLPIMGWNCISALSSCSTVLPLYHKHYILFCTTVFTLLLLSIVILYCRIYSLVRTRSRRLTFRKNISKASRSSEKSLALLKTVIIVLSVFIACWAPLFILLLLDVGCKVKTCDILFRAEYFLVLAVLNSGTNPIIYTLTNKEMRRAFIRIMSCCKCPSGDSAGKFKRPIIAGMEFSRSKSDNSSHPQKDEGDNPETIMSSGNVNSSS

`CCCCCCCCc1ccc(CN2CCC(N)(COP(=O)(O)O)C2=O)cc1` (stereo not shown) [Example 14, (3-amino-1-(4-octylbenzyl)-2-oxopyrrolidin-3-yl)methyl dihydrogen phosphate]: at S1P1, the “GTPγS S1P1 EC50 value as compared to Comparative Compound 20” value was “significant improvement” and it took 41 nM to reach a half-maximal effect (EC50). For the same compound, on S1P3 (EDG3), the EC50 (as a rule, the concentration needed to bring the measured effect to its halfway point) is greater than 30000 nM.
With `CCCCCCCCc1ccc(N2CCC(N)(COP(=O)(O)O)C2)cc1` (stereo not shown) [compound 20, (3-amino-1-(4-octylphenyl)pyrrolidin-3-yl)methyl dihydrogen phosphate, reference compound], the EC50 on S1P1 is 384 nM; at S1P3 (EDG3), greater than 30000 nM.
On to `CCCCCCCCc1ccc(N2CCC(N)(COP(=O)(O)O)C2=O)cc1` (stereo not shown) [Example 18, (3-amino-1-(4-octylphenyl)-2-oxopyrrolidin-3-yl)methyl dihydrogen phosphate], for which the EC50 is 454 nM at S1P1 and greater than 60000 nM on S1P3 (EDG3).
Turning to `CCCCCCCCc1ccc(N2CCC(N)(COP(=O)(O)O)C2=O)c(C)c1` (stereo not shown) [Example 17, (3-amino-1-(2-methyl-4-octylphenyl)-2-oxopyrrolidin-3-yl)methyl dihydrogen phosphate], the “GTPγS S1P1 EC50 value as compared to Comparative Compound 20” value at S1P1 is listed as “significant improvement”. In addition, the EC50 is 161 nM on S1P1 and greater than 60000 nM at S1P3 (EDG3).
